Laboratory results: publication PMC4979471 (Cell Death Discovery, 2015)
Like-named read-outs stand apart in the source and are kept apart here.

Key:
Assay in all cases: Kinase selectivity, P33-radiolabeled assay
Type in all cases: biochemical
Details in all cases: 10 μM ATP
CK1g3 = target: T1, CK1g3 (Homo sapiens, UniProt Q9Y6M4)
T1 construct: purchased Reaction Biology Corp
In short: (§1)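 Each enzyme was exposed to 10 μM compound, with duplicate measurements, in reactions containing 10 μM ATP. Numbers are remaining activity as a percent of the vehicle (DMSO) signal.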

NEK11 = target: T2, NEK11 (Homo sapiens, UniProt Q8NG66)
T2 construct: purchased Reaction Biology Corp
T2 sequence (Q8NG66 1-645): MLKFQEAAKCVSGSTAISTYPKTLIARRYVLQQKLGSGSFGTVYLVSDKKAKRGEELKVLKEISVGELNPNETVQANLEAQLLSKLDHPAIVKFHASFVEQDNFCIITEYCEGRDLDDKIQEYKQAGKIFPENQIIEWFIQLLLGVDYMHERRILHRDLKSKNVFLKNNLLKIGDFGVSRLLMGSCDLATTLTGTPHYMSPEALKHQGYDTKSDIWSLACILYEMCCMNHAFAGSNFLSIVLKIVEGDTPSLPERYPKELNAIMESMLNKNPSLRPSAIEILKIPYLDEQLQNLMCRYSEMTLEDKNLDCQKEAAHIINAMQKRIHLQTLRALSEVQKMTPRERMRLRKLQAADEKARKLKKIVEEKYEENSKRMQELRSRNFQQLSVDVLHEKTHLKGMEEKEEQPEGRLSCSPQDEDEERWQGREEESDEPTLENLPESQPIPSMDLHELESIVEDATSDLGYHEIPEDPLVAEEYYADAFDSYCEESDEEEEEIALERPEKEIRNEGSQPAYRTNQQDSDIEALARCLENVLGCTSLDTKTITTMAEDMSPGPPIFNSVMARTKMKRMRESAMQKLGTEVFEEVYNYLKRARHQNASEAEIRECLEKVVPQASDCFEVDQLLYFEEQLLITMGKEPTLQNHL
In short: as §1

CDC7/DBF4 = target: T3, CDC7/DBF4 (Homo sapiens, UniProt O00311)
T3 construct: purchased Reaction Biology Corp
In short: as §1

RIPK3 = target: T4, RIPK3 (Homo sapiens, UniProt Q9Y572)
T4 construct: purchased Reaction Biology Corp
In short: as §1

ASK1/MAP3K5 = target: T5, ASK1/MAP3K5 (Homo sapiens, UniProt Q99683)
T5 construct: purchased Reaction Biology Corp
T5 sequence (Q99683 1-1374): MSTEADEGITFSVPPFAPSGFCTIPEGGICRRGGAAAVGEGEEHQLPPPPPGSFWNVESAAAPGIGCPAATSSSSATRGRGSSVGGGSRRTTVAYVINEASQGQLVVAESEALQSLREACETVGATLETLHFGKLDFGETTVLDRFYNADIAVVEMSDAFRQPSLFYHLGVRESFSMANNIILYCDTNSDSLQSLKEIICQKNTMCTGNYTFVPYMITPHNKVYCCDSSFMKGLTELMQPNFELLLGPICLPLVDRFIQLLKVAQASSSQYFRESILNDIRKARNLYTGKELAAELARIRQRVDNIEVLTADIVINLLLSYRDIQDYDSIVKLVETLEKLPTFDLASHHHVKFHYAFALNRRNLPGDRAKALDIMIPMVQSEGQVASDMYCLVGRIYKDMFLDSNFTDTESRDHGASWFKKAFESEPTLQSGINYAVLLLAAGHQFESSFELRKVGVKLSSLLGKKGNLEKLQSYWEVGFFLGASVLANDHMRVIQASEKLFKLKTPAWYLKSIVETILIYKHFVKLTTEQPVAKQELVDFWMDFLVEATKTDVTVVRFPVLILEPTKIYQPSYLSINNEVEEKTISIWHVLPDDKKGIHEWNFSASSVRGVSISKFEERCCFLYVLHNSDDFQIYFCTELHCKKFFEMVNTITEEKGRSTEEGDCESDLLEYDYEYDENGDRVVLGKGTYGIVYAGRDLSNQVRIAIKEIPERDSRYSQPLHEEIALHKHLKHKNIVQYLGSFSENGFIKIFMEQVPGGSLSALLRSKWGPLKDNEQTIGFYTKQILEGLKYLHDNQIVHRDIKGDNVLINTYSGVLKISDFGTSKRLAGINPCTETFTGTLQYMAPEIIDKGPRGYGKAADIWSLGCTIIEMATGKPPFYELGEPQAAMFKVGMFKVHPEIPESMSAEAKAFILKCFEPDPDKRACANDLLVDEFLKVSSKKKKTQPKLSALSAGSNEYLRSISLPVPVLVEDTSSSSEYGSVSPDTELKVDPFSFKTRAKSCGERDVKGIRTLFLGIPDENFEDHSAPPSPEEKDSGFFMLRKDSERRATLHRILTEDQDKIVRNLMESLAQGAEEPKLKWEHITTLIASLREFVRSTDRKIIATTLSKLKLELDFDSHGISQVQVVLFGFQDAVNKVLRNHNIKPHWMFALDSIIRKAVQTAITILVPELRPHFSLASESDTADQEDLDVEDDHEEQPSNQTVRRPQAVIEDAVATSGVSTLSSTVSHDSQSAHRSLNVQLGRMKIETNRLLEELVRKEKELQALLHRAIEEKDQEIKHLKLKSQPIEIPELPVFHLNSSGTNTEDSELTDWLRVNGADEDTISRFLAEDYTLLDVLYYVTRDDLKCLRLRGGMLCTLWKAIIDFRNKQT
In short: as §1

CDK1/cyclin A = target: T6, CDK1/cyclin A (Homo sapiens, UniProt P06493)
T6 construct: purchased Reaction Biology Corp
In short: as §1

PAK3 = target: T7, PAK3 (Homo sapiens, UniProt O75914)
T7 construct: purchased Reaction Biology Corp
In short: as §1

[1] = read-out: % Enzyme Activity (relative to DMSO controls) AVG
[2] = read-out: % Enzyme Activity (relative to DMSO controls) Data 1
[3] = read-out: % Enzyme Activity (relative to DMSO controls) Data 2

T1 sequence (Q9Y6M4 whole entry): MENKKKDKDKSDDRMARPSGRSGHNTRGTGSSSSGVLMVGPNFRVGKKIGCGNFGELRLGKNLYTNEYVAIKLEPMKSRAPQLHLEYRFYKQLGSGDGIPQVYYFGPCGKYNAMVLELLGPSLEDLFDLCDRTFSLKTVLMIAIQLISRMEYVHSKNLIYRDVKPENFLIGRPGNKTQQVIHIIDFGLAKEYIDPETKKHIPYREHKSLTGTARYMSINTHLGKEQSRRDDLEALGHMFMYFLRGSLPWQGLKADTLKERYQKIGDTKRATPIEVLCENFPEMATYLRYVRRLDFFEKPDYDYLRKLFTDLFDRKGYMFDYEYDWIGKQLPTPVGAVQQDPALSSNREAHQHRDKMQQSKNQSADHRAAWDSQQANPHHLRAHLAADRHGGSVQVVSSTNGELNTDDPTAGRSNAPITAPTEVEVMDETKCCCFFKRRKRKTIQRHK
T4 sequence (Q9Y572 whole entry): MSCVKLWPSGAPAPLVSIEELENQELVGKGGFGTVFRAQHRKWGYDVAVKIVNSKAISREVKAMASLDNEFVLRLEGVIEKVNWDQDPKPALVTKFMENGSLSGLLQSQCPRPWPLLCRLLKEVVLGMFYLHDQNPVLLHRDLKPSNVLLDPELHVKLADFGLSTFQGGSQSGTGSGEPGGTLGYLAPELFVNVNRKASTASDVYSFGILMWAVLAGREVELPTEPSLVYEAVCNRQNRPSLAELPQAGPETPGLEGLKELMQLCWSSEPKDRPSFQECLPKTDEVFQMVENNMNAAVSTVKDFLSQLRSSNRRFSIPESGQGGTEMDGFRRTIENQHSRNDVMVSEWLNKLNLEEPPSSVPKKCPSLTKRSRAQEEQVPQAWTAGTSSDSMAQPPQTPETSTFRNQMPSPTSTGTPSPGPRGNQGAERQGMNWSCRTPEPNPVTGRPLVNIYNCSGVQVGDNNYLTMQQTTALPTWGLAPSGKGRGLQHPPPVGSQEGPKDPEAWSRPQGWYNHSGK
T6 sequence (P06493 whole entry): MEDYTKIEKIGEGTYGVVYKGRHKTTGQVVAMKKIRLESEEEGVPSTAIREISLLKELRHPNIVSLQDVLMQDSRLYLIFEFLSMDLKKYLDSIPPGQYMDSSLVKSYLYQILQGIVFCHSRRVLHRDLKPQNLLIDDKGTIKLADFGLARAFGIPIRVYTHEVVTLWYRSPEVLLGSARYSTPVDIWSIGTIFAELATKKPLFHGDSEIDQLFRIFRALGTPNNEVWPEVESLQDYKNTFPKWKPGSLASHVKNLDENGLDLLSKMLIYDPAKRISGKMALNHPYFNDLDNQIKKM
T6 sequence (P20248 whole entry partner): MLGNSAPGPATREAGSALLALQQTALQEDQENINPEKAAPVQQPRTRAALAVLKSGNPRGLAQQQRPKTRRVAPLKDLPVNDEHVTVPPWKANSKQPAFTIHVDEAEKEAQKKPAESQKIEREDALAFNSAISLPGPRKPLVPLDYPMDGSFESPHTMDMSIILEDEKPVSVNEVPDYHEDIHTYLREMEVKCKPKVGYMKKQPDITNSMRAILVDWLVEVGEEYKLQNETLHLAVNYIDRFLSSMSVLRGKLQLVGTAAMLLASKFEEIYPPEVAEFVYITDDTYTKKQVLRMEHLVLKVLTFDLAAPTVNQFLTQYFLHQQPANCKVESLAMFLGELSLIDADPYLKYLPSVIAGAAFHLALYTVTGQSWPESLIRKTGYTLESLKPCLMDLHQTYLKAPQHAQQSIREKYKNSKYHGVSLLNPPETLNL
T3 sequence (O00311 whole entry): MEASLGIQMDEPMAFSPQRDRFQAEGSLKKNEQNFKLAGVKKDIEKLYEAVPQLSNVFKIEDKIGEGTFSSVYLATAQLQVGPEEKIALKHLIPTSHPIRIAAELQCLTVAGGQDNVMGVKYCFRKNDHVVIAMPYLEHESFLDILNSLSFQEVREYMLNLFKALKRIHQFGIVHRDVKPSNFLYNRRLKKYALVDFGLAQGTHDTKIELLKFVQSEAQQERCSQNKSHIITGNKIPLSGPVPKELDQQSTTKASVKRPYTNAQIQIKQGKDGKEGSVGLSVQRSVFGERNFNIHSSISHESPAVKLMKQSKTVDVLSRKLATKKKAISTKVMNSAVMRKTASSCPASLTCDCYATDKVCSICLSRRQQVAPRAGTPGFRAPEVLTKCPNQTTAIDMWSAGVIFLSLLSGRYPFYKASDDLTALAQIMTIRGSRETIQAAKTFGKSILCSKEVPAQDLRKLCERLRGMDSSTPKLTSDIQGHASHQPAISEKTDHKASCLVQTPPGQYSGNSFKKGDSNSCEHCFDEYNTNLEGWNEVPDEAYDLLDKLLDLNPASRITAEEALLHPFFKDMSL
T3 sequence (Q9UBU7 whole entry partner): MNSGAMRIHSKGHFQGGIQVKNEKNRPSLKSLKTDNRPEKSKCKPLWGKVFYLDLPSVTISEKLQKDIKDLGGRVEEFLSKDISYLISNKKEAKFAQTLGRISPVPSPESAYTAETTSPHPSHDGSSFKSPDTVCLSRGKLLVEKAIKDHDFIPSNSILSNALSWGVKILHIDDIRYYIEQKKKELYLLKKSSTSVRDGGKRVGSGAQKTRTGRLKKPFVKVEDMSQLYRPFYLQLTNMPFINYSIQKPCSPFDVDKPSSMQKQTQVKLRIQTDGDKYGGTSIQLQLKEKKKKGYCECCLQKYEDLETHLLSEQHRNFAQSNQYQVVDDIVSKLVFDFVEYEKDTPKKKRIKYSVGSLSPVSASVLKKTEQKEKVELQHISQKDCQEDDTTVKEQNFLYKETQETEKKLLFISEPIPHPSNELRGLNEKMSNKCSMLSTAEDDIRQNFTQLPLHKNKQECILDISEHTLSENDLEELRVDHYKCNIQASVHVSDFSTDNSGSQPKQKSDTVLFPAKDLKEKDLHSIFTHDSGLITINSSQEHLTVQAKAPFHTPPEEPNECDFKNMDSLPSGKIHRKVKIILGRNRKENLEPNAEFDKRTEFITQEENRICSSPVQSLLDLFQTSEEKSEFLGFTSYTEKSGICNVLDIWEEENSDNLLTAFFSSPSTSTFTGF
T7 sequence (O75914 whole entry): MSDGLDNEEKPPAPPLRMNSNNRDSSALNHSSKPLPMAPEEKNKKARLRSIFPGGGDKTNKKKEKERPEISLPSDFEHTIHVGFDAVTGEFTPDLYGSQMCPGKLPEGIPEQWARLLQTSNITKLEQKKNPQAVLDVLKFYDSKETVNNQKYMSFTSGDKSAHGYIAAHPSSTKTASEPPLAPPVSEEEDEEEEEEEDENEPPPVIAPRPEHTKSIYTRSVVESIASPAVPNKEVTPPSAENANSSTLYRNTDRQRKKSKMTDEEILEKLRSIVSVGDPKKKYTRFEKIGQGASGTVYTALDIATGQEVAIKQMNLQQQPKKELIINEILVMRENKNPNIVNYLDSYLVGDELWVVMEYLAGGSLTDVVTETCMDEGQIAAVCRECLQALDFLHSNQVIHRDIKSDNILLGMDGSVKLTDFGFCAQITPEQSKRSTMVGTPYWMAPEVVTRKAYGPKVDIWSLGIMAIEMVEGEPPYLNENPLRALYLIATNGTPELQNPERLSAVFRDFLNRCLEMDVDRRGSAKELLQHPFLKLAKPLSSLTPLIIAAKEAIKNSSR

Q: Which remaining activity at 10 µM (CK1g3; [1]) does the source give for `CC(C)(C)C(=O)N1N=CC[C@H]1c1ccccc1` [GSK′963] here?
A: 98.4%

Q: And the remaining activity at 10 µM (CK1g3; [2])?
A: 97.8%

Q: What about the remaining activity at 10 µM (CK1g3; [3]) of the same compound?
A: 99%

Q: And the remaining activity at 10 µM (NEK11; [1])?
A: 79.1%

Q: And the remaining activity at 10 µM (NEK11; [2])?
A: 77.3%

Q: And the remaining activity at 10 µM (NEK11; [3])?
A: 80.9%

Q: What about the remaining activity at 10 µM (CDC7/DBF4; [1]) of the same compound?
A: 103%

Q: And the remaining activity at 10 µM (CDC7/DBF4; [2])?
A: 105%

Q: What about the remaining activity at 10 µM (CDC7/DBF4; [3]) of the same compound?
A: 101%

Q: And the remaining activity at 10 µM (RIPK3; [1])?
A: 99.3%

Q: What about the remaining activity at 10 µM (RIPK3; [2]) of the same compound?
A: 100%

Q: What about the remaining activity at 10 µM (RIPK3; [3]) of the same compound?
A: 98.7%

Q: And the remaining activity at 10 µM (ASK1/MAP3K5; [1])?
A: 98.8%

Q: And the remaining activity at 10 µM (ASK1/MAP3K5; [2])?
A: 99.4%

Q: And the remaining activity at 10 µM (ASK1/MAP3K5; [3])?
A: 98.1%

Q: What about the remaining activity at 10 µM (CDK1/cyclin A; [1]) of the same compound?
A: 105%

Q: What about the remaining activity at 10 µM (CDK1/cyclin A; [2]) of the same compound?
A: 107%

Q: What about the remaining activity at 10 µM (CDK1/cyclin A; [3]) of the same compound?
A: 102%

Q: And the remaining activity at 10 µM (PAK3; [1])?
A: 103%

Q: And the remaining activity at 10 µM (PAK3; [2])?
A: 102%

Q: What about the remaining activity at 10 µM (PAK3; [3]) of the same compound?
A: 105%
